Laboratory results: patent US20220396577A1, “NOVEL SUBSTITUTED 1,3-8-TRIAZASPIRO[4,5] DECANE-2,4-DIONE COMPOUNDS AS INDOLEAMINE 2,3-DIOXYGENASE (IDO) AND/OR TRYPTOPHAN 2,3-DIOXYGENASE (TDO) INHIBITORS” (Merck Sharp & Dohme LLC, priority 2019, published 2022)

Experiments:
Format in all cases: biochemical
IDO1 = IDO1 (Homo sapiens, UniProt P14902); experiment: IDO1 Enzymatic Assay (A); details: recombinant HIS-tagged IDO1, 40 nM; read-out: IDO enzymatic IC50, nM (A)
Description: Compounds to be tested were serially diluted in ten 3-fold steps in DMSO starting from 10 mM DMSO stocks. Compound dilutions or DMSO alone were then dispensed from the dilution plate into a Greiner black 384-well assay plate (catalog #781086) using an Echo 555 acoustic liquid handler (Labcyte). HIS-tagged IDO1 protein (Genbank #: NM_002164) was recombinantly expressed in Escherichia coli using ZYP5052 auto induction media supplemented with 500 μM delta aminolevulinic acid for 48 h at 16° C. IDO1 protein was purified using Ni^2+-affinity resin and size exclusion chromatography. Purified protein was then diluted in assay buffer (50 mM Tris pH 7.0, 1% glycerol, 20 μM methylene blue, 0.05% Tween-20, 20 mM sodium ascorbate, 100 units/mL catalase) to obtain a final IDO1 concentration of 40 nM. […] were dispensed to wells of the assay plate using a BioRAPTR liquid dispenser (Beckman Coulter). Assay plates containing compound and IDO1 enzyme were incubated at RT for 30 min. Afterwards, 10 μL of 400 μM tryptophan in assay buffer were added to each well of the assay plate using a BioRAPTR liquid dispenser. […] The resulting fluoresence was measured in an Envision plate reader (Perkin Elmer) with a 400/25 nm excitation filter and an 510/20 nm emission filter. […] Potencies were calculated by linear least squares fit to the four parameter logistic IC50 equation.

CLK2 = CLK2 (Homo sapiens, UniProt P49760); experiment: Off-target kinase panel, ZLYTE: CLK2; details: read-out: Estimated IC50 (uM) CLK2
Source text: (§1) The activity data was obtained in a panel of 265 and 264 for compounds 1-1 and CC-1, respectively, using the ZLYTE and ADAPTA assay methods indicated in the table below.
(§2) The ZLYTE biochemical assay employs a fluorescence-based, coupled-enzyme format and is based on the differential sensitivity of phosphorylated and non-phosphorylated peptides to proteolytic cleavage. The peptide substrate is labeled with two fluorophores—one at each end—that make up a Fluorescence Resonance Energy Transfer (FRET) pair.
(§3) In the primary reaction, the kinase transfers the gamma-phosphate of ATP to a single tyrosine, serine or threonine residue in a synthetic FRET-peptide. In the secondary reaction, a site-specific protease recognizes and cleaves non-phosphorylated FRET-peptides. Phosphorylation of FRET-peptides suppresses cleavage by the Development Reagent. […] A ratiometric method, which calculates the ratio (the Emission Ratio) of donor emission to acceptor emission after excitation of the donor fluorophore at 400 nm, is used to quantitate reaction progress, as shown in the equation below. […]
(§4) Both cleaved and uncleaved FRET-peptides contribute to the fluorescence signals and therefore to the Emission Ratio. The extent of phosphorylation of the FRET-peptide can be calculated from the Emission Ratio. […]
(§5) 10. Read on fluorescence plate reader and analyze the data.

SGK2 = molecular target: T1, SGK2 (Homo sapiens, UniProt Q9HBY8); experiment: Off-target kinase panel, ZLYTE: SGK2; details: read-out: Estimated IC50 (uM) SGK2
T1 sequence (Q9HBY8 1-367): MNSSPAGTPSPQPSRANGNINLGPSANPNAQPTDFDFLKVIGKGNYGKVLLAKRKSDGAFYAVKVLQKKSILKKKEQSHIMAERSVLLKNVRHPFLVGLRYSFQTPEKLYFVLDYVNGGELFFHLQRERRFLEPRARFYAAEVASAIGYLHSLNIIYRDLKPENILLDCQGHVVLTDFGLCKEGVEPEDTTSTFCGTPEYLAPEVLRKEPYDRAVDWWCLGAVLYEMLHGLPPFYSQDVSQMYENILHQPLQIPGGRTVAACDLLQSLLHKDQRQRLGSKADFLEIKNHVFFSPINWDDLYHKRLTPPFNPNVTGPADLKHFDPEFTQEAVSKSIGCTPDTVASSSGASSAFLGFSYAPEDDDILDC
Source text: as §1, §2, §3, §4, §5

Sequence of CLK2 (P49760 whole entry): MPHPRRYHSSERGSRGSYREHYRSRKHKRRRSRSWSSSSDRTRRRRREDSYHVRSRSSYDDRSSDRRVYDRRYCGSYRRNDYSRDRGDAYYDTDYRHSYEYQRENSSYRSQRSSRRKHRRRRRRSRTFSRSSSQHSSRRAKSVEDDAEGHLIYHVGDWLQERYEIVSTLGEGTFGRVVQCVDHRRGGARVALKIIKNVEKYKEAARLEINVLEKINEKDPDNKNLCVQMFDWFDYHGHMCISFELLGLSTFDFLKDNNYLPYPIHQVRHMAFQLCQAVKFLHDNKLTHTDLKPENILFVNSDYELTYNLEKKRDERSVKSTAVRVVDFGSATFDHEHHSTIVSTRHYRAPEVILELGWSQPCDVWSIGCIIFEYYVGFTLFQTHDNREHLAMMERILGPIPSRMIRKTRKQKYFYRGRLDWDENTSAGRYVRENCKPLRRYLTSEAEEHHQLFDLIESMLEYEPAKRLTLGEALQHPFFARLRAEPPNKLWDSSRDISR
Sequence of IDO1 (P14902 whole entry): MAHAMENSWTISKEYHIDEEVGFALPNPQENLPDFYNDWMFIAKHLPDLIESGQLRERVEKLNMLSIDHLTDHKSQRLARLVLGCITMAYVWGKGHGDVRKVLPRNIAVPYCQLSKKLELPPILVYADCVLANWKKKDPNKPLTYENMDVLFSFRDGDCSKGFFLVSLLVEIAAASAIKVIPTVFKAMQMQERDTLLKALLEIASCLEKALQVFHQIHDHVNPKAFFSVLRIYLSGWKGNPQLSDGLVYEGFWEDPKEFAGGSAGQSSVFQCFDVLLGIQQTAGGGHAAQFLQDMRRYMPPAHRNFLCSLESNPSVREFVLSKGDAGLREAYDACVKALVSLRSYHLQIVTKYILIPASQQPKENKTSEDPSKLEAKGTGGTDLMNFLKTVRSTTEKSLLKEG

Structure (SMILES) | IC50 (IDO1) | IC50 (CLK2) | IC50 (SGK2)
C[C@@H]1CN(c2cc(Br)cc3[nH]ncc23)CC[C@]12NC(=O)NC2=O (single isomer, unassigned) [Compound 1-1] | 129 nM | 0.73 µM | > 2 µM
O=C1NC(=O)C2(CCN(c3cc(Cl)cc4[nH]ncc34)CC2)N1 [CC-1] | 113 nM | 0.35 µM | 1.3 µM
